Data: ChEMBL document CHEMBL2331555 (ACS Med Chem Lett, 2013)
In brackets after ≈: the same amount, converted by molar mass.

Assays:
[1] = in vitro; conditions: dog, MDCK
[2] = physchem
[3] = in vivo; conditions: rat, po
[4] = in vivo; conditions: rat

Papp [1] [×10⁻⁶ cm/s] | solubility kinetic [2] [µM] | bioavailability [3] [%] | Vd [4] [L/kg] | Structure (SMILES)
14.3 | 22.2 (≈ 9 µg/mL) | – | – | COc1ccc(-c2ccc3ncc4c(c3n2)n([C@H]2CC[C@H](O)CC2)c(=O)n4C)cn1
6.65 | – | 76 | 4.46 | COc1ccc(-c2ccc3ncc4c(c3n2)n(C2CCN(C)CC2)c(=O)n4C)cn1
3.97 | – | – | – | CC(=O)N1CCC(n2c(=O)n(C)c3cnc4ccc(-c5cnc6[nH]ncc6c5)nc4c32)CC1
4.6 | 444 (≈ 209 µg/mL) | – | – | C[C@H](O)C(=O)N1CCC(n2c(=O)n(C)c3cnc4ccc(-c5cccc6[nH]ncc56)nc4c32)CC1

Continued, compound first:

Structure (SMILES) | Papp [1] [×10⁻⁶ cm/s] | solubility kinetic [2] [µM] | bioavailability [3] [%] | Vd [4] [L/kg]
COc1ccc(-c2ccc3ncc4c(c3n2)n(-c2ccc(C(C)(C)C#N)cc2)c(=O)n4C)cn1 | 0.305 | 2 (≈ 0.901 µg/mL) | – | –
COc1ccc(-c2ccc3ncc4c(c3n2)n([C@H]2CC[C@H](OCCO)CC2)c(=O)n4C)cn1 | 14.3 | 117 (≈ 52.6 µg/mL) | – | –
COc1ccc(-c2ccc3ncc4c(c3n2)n(C2CCN(C(C)=O)CC2)c(=O)n4C)cn1 | 16.3 | 22 (≈ 9.51 µg/mL) | – | –
CC(=O)N1CCC(n2c(=O)n(C)c3cnc4ccc(-c5ccc(C)nc5)nc4c32)CC1 | 19.5 | 455 (≈ 190 µg/mL) | – | –
Cc1ccc(-c2ccc3ncc4c(c3n2)n(C2CCN(C(=O)CO)CC2)c(=O)n4C)cn1 | 18.2 | – | – | –
Cc1ccc(-c2ccc3ncc4c(c3n2)n(C2CCN(C(=O)C(C)(C)O)CC2)c(=O)n4C)cn1 | 21.9 | – | – | –
COCC(=O)N1CCC(n2c(=O)n(C)c3cnc4ccc(-c5ccc(C)nc5)nc4c32)CC1 | 20.2 | – | – | –
CC(=O)N1CCC(n2c(=O)n(C)c3cnc4ccc(-c5cccc6[nH]ncc56)nc4c32)CC1 | 8.56 | 55.5 (≈ 24.5 µg/mL) | – | –
